Data as given in US9428504B2, “7-hydroxy-spiropipiperidine indolinyl antagonists of P2Y1 receptor” (BRISTOL-MYERS SQUIBB COMPANY, priority 2012, dated 2016).
pKi: −log10 of the molar value. Counter-ions that a name gives are not always drawn. Like-named read-outs stand apart in the source and are kept apart here.

Tests used:
[1] = target: cloned human P2Y1 receptors (Homo sapiens (Human), UniProt P47900); assay: Binding Assay B: Scintillation Proximity Assay (SPA) for P2Y1 binding; settings: for Ki: SPA, [33P] 2MeS-ADP displacement, read-out: P2Y1 Ki (nM) using binding assay B
Summary of the method: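 Membranes with ~15 fmol receptor (1.7 μg total protein) incubated with 0.3 nM [^33P]-labelled radioligand for 1 h at room temperature to completion. After centrifugation and removal of aqueous phase, bound radioactivity read by scintillation proximity; inhibition of radioligand binding measured.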

[2] = tested on: human platelet rich plasma (PRP); assay: ADP induced platelet aggregation assay; settings: Homo sapiens, Platelet, read-out: PA IC50 (μM) @ 10 μM ADP, platelet aggregation induced by 10 μM ADP, human PRP

Sequence of cloned human P2Y1 receptors (P47900 whole entry): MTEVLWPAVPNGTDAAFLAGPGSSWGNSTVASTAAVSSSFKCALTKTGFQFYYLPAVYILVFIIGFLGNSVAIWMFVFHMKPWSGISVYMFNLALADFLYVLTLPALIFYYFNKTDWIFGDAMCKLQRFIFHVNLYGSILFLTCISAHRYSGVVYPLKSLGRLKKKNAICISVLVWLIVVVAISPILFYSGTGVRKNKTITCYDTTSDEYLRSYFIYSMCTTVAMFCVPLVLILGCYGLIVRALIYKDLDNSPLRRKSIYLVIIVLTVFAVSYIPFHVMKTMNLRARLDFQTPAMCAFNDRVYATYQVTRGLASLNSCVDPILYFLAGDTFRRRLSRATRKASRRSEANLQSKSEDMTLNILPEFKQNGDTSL

Structure (SMILES)	Ki [1] [nM]	IC50 [2] [µM]	pKi [1]
CN(C)S(=O)(=O)c1ccc(O)c2c1C1(CCN(CC(C)(C)C)CC1)CN2c1ccccc1NC(=O)Nc1ccc(OC(F)(F)F)cc1 [Example 89, 7-Hydroxy-N,N-dimethyl-1′-neopentyl-1-(2-(3-(4-(trifluoromethoxy)phenyl)ureido)phenyl)spiro[indoline-3,4′-piperidine]-4-sulfonamide]	5.3	0.4	–
CCN(CC)S(=O)(=O)c1ccc(O)c2c1C1(CCN(CC(C)(C)C)CC1)CN2c1ccccc1NC(=O)Nc1ccc(C(C)(C)C)cc1 [Example 90, 1-(2-(3-(4-tert-Butylphenyl)ureido)phenyl)-N,N-diethyl-7-hydroxy-1′-neopentylspiro [indoline-3,4′-piperidine]-4-sulfonamide, trifluoroacetic acid salt]	3.5	0.2	–
CCN(CC)S(=O)(=O)c1ccc(O)c2c1C1(CCN(CC(C)(C)C)CC1)CN2c1ccccc1NC(=O)Nc1ccc(OC(F)(F)F)cc1 [Example 91, N,N-Diethyl-7-hydroxy-1′-neopentyl-1-(2-(3-(4-(trifluoromethoxy)phenyl)ureido)phenyl)spiro [indoline-3,4′-piperidine]-4-sulfonamide trifluoroacetic acid salt]	3.4	0.3	–
CCN(CC)S(=O)(=O)c1ccc(O)c2c1C1(CCN(CC(C)(C)C)CC1)CN2c1ccccc1NC(=O)Nc1nc2ccc(Cl)cc2s1 [Example 92, 1-(2-(3-(6-Chlorobenzo[d]thiazol-2-yl)ureido)phenyl)-N,N-diethyl-7-hydroxy-1′-neopentylspiro[indoline-3,4′-piperidine]-4-sulfonamide]	15.8	0.5	–
CC(C)(C)CN1CCC2(CC1)CN(c1ccccc1NC(=O)Nc1nc3ccc(F)cc3s1)c1c(O)cc(F)c(Cl)c12 [Example 93, 1-(2-(4-Chloro-5-fluoro-7-hydroxy-1′-neopentylspiro [indoline-3,4′-piperidine]-1-yl)phenyl)-3-(6-fluorobenzo[d]thiazol-2-yl)urea]	13.5	0.5	–
CC(C)(C)CN1CCC2(CC1)CN(c1ccccc1NC(=O)Nc1nc3ccc(F)cc3s1)c1c(O)cc(F)c(F)c12 [Example 95, 1-(2-(4,5-Difluoro-7-hydroxy-1′-neopentylspiro [indoline-3,4′-piperidine]-1-yl)phenyl)-3-(6-fluorobenzo[d]thiazol-2-yl)urea]	14.7	0.5	–
CC(C)(C)CN1CCC2(CC1)CN(c1ccccc1NC(=O)Nc1nc3ccc(Cl)cc3s1)c1c(O)cc(F)c(F)c12 [Example 96, l-(6-Chlorobenzo[d]thiazol-2-yl)-3-(2-(4,5-difluoro-7-hydroxy-1′-neopentylspiro[indoline-3,4′-piperidine]-1-yl)phenyl)urea]	25.8	0.3	–
Cc1ccc2nc(NC(=O)Nc3ccccc3N3CC4(CCN(CC(C)(C)C)CC4)c4c(Cl)c(F)cc(O)c43)sc2c1 [Example 97, 1-(2-(4-Chloro-5-fluoro-7-hydroxy-1′-neopentylspiro [indoline-3,4′-piperidine]-1-yl)phenyl)-3-(6-melhylbenzo [d]thiazol-2-yl)urea]	11.5	0.7	–
CC(C)(C)CN1CCC2(CC1)CN(c1ccccc1NC(=O)Nc1nc3ccc(Cl)cc3s1)c1c(O)c(F)cc(Cl)c12 [Example 98, 1-(2-(4-Chloro-6-fluoro-7-hydroxy-1′-neopentylspiro [indoline-3,4′-piperidine]-1-yl)phenyl)-3-(6-chlorobenzo [d]thiazol-2-yl)urea]	12.8	0.9	–
CC(C)CN1CCCC1c1ccc(NC(=O)Nc2ccccc2N2CC3(CCN(CC(C)(C)C)CC3)c3c(F)cc(F)c(O)c32)cc1 (centres unmarked) [Example 99, 1-(2-(4,6-Difluoro-7-hydroxy-1′-neopentylspiro [indoline-3,4′-piperidine]-1-yl)phenyl)-3-(4-(1-isobutylpyrrolidin-2-yl)phenyl)urea]	–	1.7	7.85
CC(C)(C)CN1CCC2(CC1)CN(c1ccccc1NC(=O)Nc1nc3ccc(F)cc3s1)c1c(O)c(F)cc(Cl)c12 [Example 100, 1-(2-(4-Chloro-6-fluoro-7-hydroxy-1′-neopentylspiro [indoline-3,4′-piperidine]-1-yl)phenyl)-3-(6-fluorobenzo[d]thiazol-2-yl)urea]	7.9	0.2	–
CC(C)(C)CN1CCC2(CC1)CN(c1ccccc1NC(=O)Nc1nc3ccc(Cl)nc3s1)c1c(O)cc(F)c(Cl)c12 [Example 101, 1-(2-(4-Chloro-5-fluoro-7-hydroxy-1′-neopentylspiro [indoline-3,4′-piperidin]-1-yl)phenyl)-3-(5-chlorothiazolo[5,4-b]pyridin-2-yl)urea]	12.2	0.9	–
CC(C)(C)CN1CCC2(CC1)CN(c1ccccc1NC(=O)Nc1nc3ccc(F)nc3s1)c1c(O)cc(F)c(Cl)c12 [Example 102, 1-(2-(4-Chloro-5-fluoro-7-hydroxy-1′-neopentylspiro [indoline-3,4′-piperidin]-1-yl)phenyl)-3-(5-fluorothiazolo [5,4-b]pyridin-2-yl)urea]	12.6	0.6	–
CC(C)CN1CCCC1c1ccc(NC(=O)Nc2ccccc2N2CC3(CCN(CC(C)(C)C)CC3)c3c(F)c(F)cc(O)c32)cc1 (centres unmarked) [Example 104, 1-(2-(4,5-Difluoro-7-hydroxy-1′-neopentylspiro [indoline-3,4′-piperidine]-1-yl)phenyl)-3-(4-(1-isobutylpyrrolidin-2-yl)phenyl)urea]	17	1	–
CC(C)CN1CCC(c2ccc(NC(=O)Nc3ccccc3N3CC4(CCN(CC(C)(C)C)CC4)c4c(Cl)c(F)cc(O)c43)cc2)CC1 [Example 105, 1-(2-(4-Chloro-5-fluoro-7-hydroxy-1′-neopentylspiro [indoline-3,4′-piperidine]-1-yl)phenyl)-3-(4-(1-isobutylpiperidin-4-yl)phenyl)urea]	12.7	1.1	–
CC(C)CN1CCC2(CC1)CN(c1ccccc1NC(=O)Nc1ccc(OC(F)(F)F)cc1)c1c(O)ccc(C(F)(F)F)c12 [Example 106, 1-(2-(7-Hydroxy-1′-isobutyl-4-(trifluoromethyl)spiro [indoline-3,4′-piperidine]-1-yl)phenyl)-3-(4-(trifluoromethoxy)phenyl) urea]	10.6	0.1	–
CC(C)N1CCC2(CC1)CN(c1ccccc1NC(=O)Nc1ccc(OC(F)(F)F)cc1)c1c(O)ccc(C(F)(F)F)c12 [Example 107, 1-(2-(7-Hydroxy-1′-isopropyl-4-(trifluoromethyl)spiro [indoline-3,4′-piperidine]-1-yl)phenyl)-3-(4-(trifluoromethoxy)phenyl) urea]	14.4	0.6	–
COc1ccc2nc(NC(=O)Nc3ccccc3N3CC4(CCN(CC(C)(C)C)CC4)c4c(C(F)(F)F)ccc(O)c43)sc2c1 [Example 108, 1-(2-(7-Hydroxy-1′-neopentyl-4-(trifluoromethyl)spiro [indoline-3,4′-piperidin]-1-yl)phenyl)-3-(6-methoxybenzo [d]thiazol-2-yl)urea]	14.5	0.2	–
CC(C)(C)CN1CCC2(CC1)CN(c1ccccc1NC(=O)Nc1csc(Cl)n1)c1c(O)ccc(-c3nc4cc(F)ccc4s3)c12 [Example 112, 1-(2-Chlorothiazol-4-yl)-3-(2-(4-(5-fluorobenzo[d]thiazol-2-yl)-7-hydroxy-1′-neopentylspiro[indoline-3,4′-piperidin]-1-yl)phenyl)urea]	9.5	0.2	–
